Organism: Rattus norvegicus
Assay: DrugMatrix - Regimen: Daily Repeat
Assay type: toxicity, organism-based, Sprague-Dawley
Set-up: regimen Daily Repeat, gender Male, age 6-8 weeks
Details: in vivo, po, route oral GAVAGE, […]; for ABSOLUTE BASOPHIL / ABSOLUTE EOSINOPHIL / ABSOLUTE LYMPHOCYTE / ABSOLUTE MONOCYTE / ABSOLUTE SEGMENTED NEUTROPHIL / BASOPHIL / EOSINOPHIL / ERYTHROCYTE COUNT / HEMATOCRIT / HEMOGLOBIN / LEUKOCYTE COUNT / LYMPHOCYTE / MEAN CORPUSCULAR HEMOGLOBIN / MEAN CORPUSCULAR HEMOGLOBIN CONCENTRATION / MEAN CORPUSCULAR VOLUME / MONOCYTE / NEUTROPHIL / NUCLEATED RED BLOOD CELLS / PLATELET COUNT: tissue Blood; for ALANINE AMINOTRANSFERASE / ALBUMIN / ALKALINE PHOSPHATASE / ASPARTATE AMINOTRANSFERASE / BLOOD UREA NITROGEN / CARBON DIOXIDE / CHLORIDE / CHOLESTEROL / CREATINE PHOSPHOKINASE / CREATININE / GLUCOSE / LACTATE DEHYDROGENASE / LIPASE / PHOSPHORUS / POTASSIUM / SODIUM / TOTAL BILIRUBIN / TOTAL PROTEIN / URIC ACID: tissue Plasma
[1] = 0 mg/kg, 72 h, dose level Control, time 3 day
[2] = 0 mg/kg, 120 h, dose level Control, time 5 day
[3] = 100 mg/kg, 72 h, dose level Low, time 3 day

Structure (SMILES): CCn1cc(C(=O)O)c(=O)c2cc(F)c(N3CCNCC3)nc21 [ENOXACIN]
- ABSOLUTE BASOPHIL [1]: 0 CELLS/uL
- ABSOLUTE EOSINOPHIL [1]: 104.17 CELLS/uL
- ABSOLUTE LYMPHOCYTE [1]: 14547 CELLS/uL
- ABSOLUTE MONOCYTE [1]: 292 CELLS/uL
- ABSOLUTE SEGMENTED NEUTROPHIL [1]: 1640.17 CELLS/uL
- BASOPHIL [1]: 0%
- EOSINOPHIL [1]: 0.67%
- ERYTHROCYTE COUNT [1]: 5.35 x10E6/uL
- HEMATOCRIT [1]: 33.67%
- HEMOGLOBIN [1]: 13.38 G/DL
- LEUKOCYTE COUNT [1]: 16.58 x10E3/uL
- LYMPHOCYTE [1]: 87.5%
- MEAN CORPUSCULAR HEMOGLOBIN [1]: 25.05 pg
- MEAN CORPUSCULAR HEMOGLOBIN CONCENTRATION [1]: 39.78 G/DL
- MEAN CORPUSCULAR VOLUME [1]: 62.97 fL
- MONOCYTE [1]: 1.83%
- NEUTROPHIL [1]: 10%
- NUCLEATED RED BLOOD CELLS [1]: 0 /100WBC
- PLATELET COUNT [1]: 1274.5 x10E3/uL
- ALANINE AMINOTRANSFERASE [1]: 76.83 u/L
- ALBUMIN [1]: 3.97 G/DL
- ALKALINE PHOSPHATASE [1]: 347 u/L
- ASPARTATE AMINOTRANSFERASE [1]: 97.17 u/L
- BLOOD UREA NITROGEN [1]: 14.33 mg/dL
- CARBON DIOXIDE [1]: 25.5 mmol/L
- CHLORIDE [1]: 100.33 MEQ/L
- CHOLESTEROL [1]: 68.67 mg/dL
- CREATINE PHOSPHOKINASE [1]: 659.17 u/L
- CREATININE [1]: 0.32 mg/dL
- GLUCOSE [1]: 160.67 mg/dL
- LACTATE DEHYDROGENASE [1]: 271.5 u/L
- LIPASE [1]: 11.67 u/L
- PHOSPHORUS [1]: 10.65 mg/dL
- POTASSIUM [1]: 5.95 MEQ/L
- SODIUM [1]: 139.65 MEQ/L
- TOTAL BILIRUBIN [1]: 0.2 mg/dL
- TOTAL PROTEIN [1]: 5.72 G/DL
- URIC ACID [1]: 1.37 mg/dL
- ABSOLUTE BASOPHIL [2]: 0 CELLS/uL
- ABSOLUTE EOSINOPHIL [2]: 331.5 CELLS/uL
- ABSOLUTE LYMPHOCYTE [2]: 15021.67 CELLS/uL
- ABSOLUTE MONOCYTE [2]: 376.5 CELLS/uL
- ABSOLUTE SEGMENTED NEUTROPHIL [2]: 3070.33 CELLS/uL
- BASOPHIL [2]: 0%
- EOSINOPHIL [2]: 1.83%
- ERYTHROCYTE COUNT [2]: 5.24 x10E6/uL
- HEMATOCRIT [2]: 33.22%
- HEMOGLOBIN [2]: 13.2 G/DL
- LEUKOCYTE COUNT [2]: 18.8 x10E3/uL
- LYMPHOCYTE [2]: 79.67%
- MEAN CORPUSCULAR HEMOGLOBIN [2]: 25.17 pg
- MEAN CORPUSCULAR HEMOGLOBIN CONCENTRATION [2]: 39.73 G/DL
- MEAN CORPUSCULAR VOLUME [2]: 63.38 fL
- MONOCYTE [2]: 2%
- NEUTROPHIL [2]: 16.5%
- NUCLEATED RED BLOOD CELLS [2]: 0 /100WBC
- PLATELET COUNT [2]: 1142.67 x10E3/uL
- ALANINE AMINOTRANSFERASE [2]: 52.5 u/L
- ALBUMIN [2]: 3.9 G/DL
- ALKALINE PHOSPHATASE [2]: 284.5 u/L
- ASPARTATE AMINOTRANSFERASE [2]: 81.33 u/L
- BLOOD UREA NITROGEN [2]: 16 mg/dL
- CARBON DIOXIDE [2]: 25.33 mmol/L
- CHLORIDE [2]: 99.5 MEQ/L
- CHOLESTEROL [2]: 74.83 mg/dL
- CREATINE PHOSPHOKINASE [2]: 448.33 u/L
- CREATININE [2]: 0.37 mg/dL
- GLUCOSE [2]: 164.17 mg/dL
- LACTATE DEHYDROGENASE [2]: 290.67 u/L
- LIPASE [2]: 6.83 u/L
- PHOSPHORUS [2]: 11.5 mg/dL
- POTASSIUM [2]: 6.28 MEQ/L
- SODIUM [2]: 139.5 MEQ/L
- TOTAL BILIRUBIN [2]: 0.13 mg/dL
- TOTAL PROTEIN [2]: 5.55 G/DL
- URIC ACID [2]: 1.12 mg/dL
- ABSOLUTE BASOPHIL [3]: 0 CELLS/uL
- ABSOLUTE EOSINOPHIL [3]: 0 CELLS/uL
- ABSOLUTE LYMPHOCYTE [3]: 5797 CELLS/uL
- ABSOLUTE MONOCYTE [3]: 86.67 CELLS/uL
- ABSOLUTE SEGMENTED NEUTROPHIL [3]: 549.67 CELLS/uL
- BASOPHIL [3]: 0%
- EOSINOPHIL [3]: 0%
- ERYTHROCYTE COUNT [3]: 5.41 x10E6/uL
- HEMATOCRIT [3]: 34.57%
- HEMOGLOBIN [3]: 13.57 G/DL
- LEUKOCYTE COUNT [3]: 6.43 x10E3/uL
- LYMPHOCYTE [3]: 90%
- MEAN CORPUSCULAR HEMOGLOBIN [3]: 25.13 pg
- MEAN CORPUSCULAR HEMOGLOBIN CONCENTRATION [3]: 39.27 G/DL
- MEAN CORPUSCULAR VOLUME [3]: 64.03 fL
- MONOCYTE [3]: 1.33%
- NEUTROPHIL [3]: 8.67%
- NUCLEATED RED BLOOD CELLS [3]: 0 /100WBC
- PLATELET COUNT [3]: 1201 x10E3/uL
- ALANINE AMINOTRANSFERASE [3]: 52.33 u/L
- ALBUMIN [3]: 3.9 G/DL
- ALKALINE PHOSPHATASE [3]: 346.33 u/L
- ASPARTATE AMINOTRANSFERASE [3]: 78 u/L
- BLOOD UREA NITROGEN [3]: 14 mg/dL
- CARBON DIOXIDE [3]: 24.67 mmol/L
- CHLORIDE [3]: 103 MEQ/L
- CHOLESTEROL [3]: 70.33 mg/dL
- CREATINE PHOSPHOKINASE [3]: 221.67 u/L
- CREATININE [3]: 0.12 mg/dL
- GLUCOSE [3]: 172.67 mg/dL
- LACTATE DEHYDROGENASE [3]: 139.33 u/L
- LIPASE [3]: 10 u/L
- PHOSPHORUS [3]: 11.1 mg/dL
- POTASSIUM [3]: 5.8 MEQ/L
- SODIUM [3]: 142.37 MEQ/L
- TOTAL BILIRUBIN [3]: 0.13 mg/dL
- TOTAL PROTEIN [3]: 5.57 G/DL
- URIC ACID [3]: 1.63 mg/dL

— ChEMBL document CHEMBL3885881, “DrugMatrix”
